# Experimental data published in patent US9434687B2, “Detection of synthetic cannabinoids” (priority 2011, dated 2016).
# Read-outs that look alike come from different tables or passages of the source.
# Legend:
# Type in all cases: binding, sheep
# [1] = system: IgG fraction of antiserum raised to Immunogen I; conditions: Antibody to Immunogen I, cross-reactants at 100 ng/ml, 1000 ng/ml, standard JWH-018
# Description: (§1) An aqueous solution of each immunogen was formulated with Freund's Complete Adjuvant (FCA) to form an emulsion consisting of 2 mg/ml*immunogen in 50% (v/v) FCA. Three sheep were immunised with this emulsion (1° immunisation), 0.25 ml being intramuscularly injected at each of four sites in the flank of each animal. Subsequent immunizations (boosts) contained 1 mg/ml*immunogen. All boosts were emulsified in 50% (v/v) Freund's Incomplete Adjuvant (FIA) and were administered in the same manner as the 1° immunisation, at monthly intervals. Blood sampling took place 7 to 14 days after each boost. *The general procedure for immunogen administration is outlined above, however, it was necessary to deviate from this protocol in some cases, due to reduced immunogen concentrations (Immunogens II, IV, VII and VIII) and/or amount available (Immunogen VIII). Any deviations from the protocol described are outlined in Table 5 below and highlighted in bold.
# (§2) The wells of an enhanced binding 96 well polystyrene microtiter plate were coated with IgG fraction of antiserum raised to Immunogen I or II, diluted in 10 mM Tris, pH8.5 (125 μl/well). The appropriate antibody coating dilution was determined using standard ELISA checkerboard techniques. The plate was incubated overnight at 4° C., washed 4 times over 10 minutes with Tris buffered saline containing Tween 20 (TBST) and tapped dry. Standard solutions (JWH-018 for Immunogens I and II) were applied at 0, 0.625, 1.25, 2.5, 5, 10, 20 and 40 ng/ml and 50 μl of each was added to the appropriate wells. 75 μl of conjugate (appropriate hapten-HRP) diluted in Tris buffer (pH 7.2) containing EDTA, D-mannitol, sucrose, thimerosal and BSA, was added to each of the wells. The appropriate dilution of conjugate was also determined using standard ELISA checkerboard techniques. The plate was incubated at 25° C. for 1 hour. Excess unbound conjugate was removed by washing 6 times over a 10 minute period with TBST. 125 μl of tetramethylbenzidine (TMB) substrate solution was added to each well of the plate that was then incubated for 20 minutes in the dark at room temperature. The reaction was terminated by addition of 125 μl 0.2M H2SO4 to each well. The absorbance was then measured at 450 nm using a microtiter plate reader. The data are inputted to a computer program called ‘KC Junior’. It is a 4 parameter fit curve and allow the calculation of concentrations between the standard runs. This program is used to calculate the IC50s by dividing the 0 ng/ml OD value by 2 and obtaining the concentration value from the curve for this OD.
# In a similar manner to that described above, the wells of a 96-well microtiter plate were coated with the IgG fraction of the antiserum raised to Immunogens I or II. Standard solutions (JWH-018 for Immunogen I and II) were applied at 0, 0.625, 1.25, 2.5, 5, 10, 20 and 40 ng/ml and conjugate was employed as detection reagent.
# (§3) The data set out in Tables 7-10 are generated using antibodies raised against the indicated Immunogens in a competitive binding assay with the indicated tracers, using the indicated standards
# (§4) In order to determine the specificity of the competitive ELISAs, standard solutions of a range of structurally similar synthetic cannabinoids and their metabolites were prepared in TBST.
# (§5) Using the calibration curves generated and employing a single level of cross reactants, these were used to determine the cross-reactivity of each immunoassay with these substances. These are the standards used for the IC50 and cross-reactivity data generation: […]
# [2] = system: IgG fraction of antiserum raised to Immunogen IV; conditions: Antibody to Immunogen IV, cross-reactants at 100 ng/ml, 1000 ng/ml, standard JWH-018
# Description: as §1, §2
# (§6) In a similar manner to that described above, the wells of a 96-well microtiter plate were coated with the IgG fraction of the antiserum raised to Immunogens IV, VII or VIII. Standard solutions (JWH-018 for Immunogens IV and VIII, JWH-015 for Immunogen VII) were prepared in TBST at 0, 1.25, 2.5, 5, 10, 20, 40 and 80 ng/ml and conjugate was employed as detection reagent.
# as §3, §4, §5
# [3] = system: IgG fraction of antiserum raised to Immunogen VIII; conditions: Antibody to Immunogen VIII, cross-reactants at 100 ng/ml, 1000 ng/ml, standard JWH-018
# Description: as §1, §2, §6, §3, §4, §5
# [4] = system: IgG fraction of antiserum raised to Immunogen VII; conditions: Antibody to Immunogen VII, cross-reactants at 100 ng/ml, 1000 ng/ml, standard JWH-015
# Description: as §1, §2, §6, §3, §4, §5
SMILES,% B/B0 [1] [%],% B/B0 ([1]; listed as JWH-164) [%],% B/B0 [2] [%],% B/B0 ([2]; listed as JWH-164) [%],% B/B0 [3] [%],% B/B0 ([3]; listed as JWH-164) [%],% B/B0 [4] [%],% B/B0 ([4]; listed as JWH-164) [%]
CCCCCn1cc(C(=O)c2cccc3ccc(OC)cc23)c2ccccc21 [JWH-081 7-methoxynaphthyl isomer],88.26,91.86,39.20,36.14,59.51,57.93,97.60,96.13
COc1ccc(CC(=O)c2cn(CCC3CCCCC3)c3ccccc23)cc1 [RCS-8 4-methoxy isomer],94.94,–,90.78,–,100.72,–,98.21,–
CCCCCC(C)n1c(C)c(C(=O)c2cccc3ccccc23)c2ccccc21 (centres unmarked) [JWH-011],62.13,–,99.19,–,97.49,–,57.43,–
CCCCCn1cc(C(=O)c2ccc(CC)c3ccccc23)c2cc(O)ccc21 [JWH-210 5-hydroxyindole metabolite],83.29,–,48.91,–,87.72,–,100.43,–
"CCCCCn1c(O)c(C(=O)c2cccc3ccccc23)c2ccccc21 [2-OH JWH-018, JWH-018 2-hydroxyindole metabolite]",95.37,–,100.14,–,101.36,–,95.08,–
COc1ccc(C(=O)c2cn(CCCCCO)c3ccccc23)cc1 [RCS-4 N-(5-hydroxypentyl) metabolite],59.51,–,61.03,–,19.13,–,94.55,–
"CCCCCCC(C)(C)C1=CC(=O)C(C2CCCC(O)C2)=CC1=O (centres unmarked) [CP-47,497-para-quinone analogue]",100.26,–,97.33,–,88.11,–,93.29,–
CCCCCn1cc(C(=O)Cc2cccc(C)c2)c2ccccc21 [JWH 251 3-methylphenyl isomer],85.90,–,51.15,–,8.97,–,99.32,–
CCCCCCC(C)(C)c1cc(OC)c([C@@H]2C=C(CO)[C@@H]3C[C@H]2C3(C)C)c(OC)c1 [HU-308],101.35,–,94.03,–,89.77,–,95.95,–
"CCCCCCCC(C)(C)c1ccc(C2CCCC(O)C2)c(O)c1 (centres unmarked) [CP-49,497-C8-homologue]",101.11,–,94.66,–,104.88,–,98.55,–
CCCCCCC(C)(C)c1cc(O)c2c(c1)OC(C)(C)[C@@H]1CC=C(CO)C[C@@H]21 [HU-210],102.57,–,92.53,–,93.42,–,100.39,–
O=C(c1ccc(I)cc1)c1cn(CCCCCF)c2ccccc12 [AM-694 4-iodo isomer],73.79,–,27.66,–,13.42,–,98.71,–
"CCCCCCC(C)(C)c1cc(O)c2c(c1)OC(C)(C)[C@H]1CC=C(CO)C[C@H]21 [HU-211, Dexanabinol]",103.36,–,93.37,–,92.70,–,96.78,–
